Experimental data from ChEMBL document CHEMBL4359811, “Development of Potent and Selective Pyrazolopyrimidine IRAK4 Inhibitors” (J Med Chem, 2019).
Values after ≈ are worked out from the molar mass of the structure shown.

Key:
[1] = biological target: Interleukin-1 receptor-associated kinase 1 (Homo sapiens, UniProt P51617); experiment: Inhibition of human recombinant full length N-terminal His6-tagged IRAK1 (Argl94 to Ser712 residues) expressed in insect cells using H-KKARFSRFAGSSPSQSSMVAR as substrate incubated for 60 mins by fluorescence polarisation assay
Interleukin-1 receptor-associated kinase 1, sequence (P51617 whole entry): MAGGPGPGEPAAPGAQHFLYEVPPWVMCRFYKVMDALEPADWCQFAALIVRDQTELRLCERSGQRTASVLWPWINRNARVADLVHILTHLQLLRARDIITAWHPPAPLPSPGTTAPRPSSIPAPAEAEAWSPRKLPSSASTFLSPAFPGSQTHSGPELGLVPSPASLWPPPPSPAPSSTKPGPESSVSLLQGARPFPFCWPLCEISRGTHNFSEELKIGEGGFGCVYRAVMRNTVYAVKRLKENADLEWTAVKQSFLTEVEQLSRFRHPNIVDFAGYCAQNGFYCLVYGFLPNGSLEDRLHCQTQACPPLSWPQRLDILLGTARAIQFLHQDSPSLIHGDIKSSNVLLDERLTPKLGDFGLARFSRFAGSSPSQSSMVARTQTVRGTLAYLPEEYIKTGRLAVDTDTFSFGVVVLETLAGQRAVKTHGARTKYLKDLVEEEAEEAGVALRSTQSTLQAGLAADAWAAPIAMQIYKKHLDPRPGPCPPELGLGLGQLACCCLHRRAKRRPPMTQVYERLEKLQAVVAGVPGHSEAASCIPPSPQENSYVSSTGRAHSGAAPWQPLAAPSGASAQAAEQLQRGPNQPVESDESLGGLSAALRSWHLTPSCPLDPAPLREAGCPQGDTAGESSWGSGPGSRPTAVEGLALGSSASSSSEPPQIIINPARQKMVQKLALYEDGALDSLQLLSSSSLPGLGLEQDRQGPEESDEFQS

[2] = biological target: T1, Interleukin-1 receptor-associated kinase 4 (Homo sapiens, UniProt Q9NWZ3); experiment: Inhibition of human recombinant full length His6-tagged IRAK4 expressed in baculovirus expression system using H-KKARFSRFAGSSPSQSSMVAR as substrate incubated for 90 mins by fluorescence polarisation assay
T1 sequence (Q9NWZ3 whole entry): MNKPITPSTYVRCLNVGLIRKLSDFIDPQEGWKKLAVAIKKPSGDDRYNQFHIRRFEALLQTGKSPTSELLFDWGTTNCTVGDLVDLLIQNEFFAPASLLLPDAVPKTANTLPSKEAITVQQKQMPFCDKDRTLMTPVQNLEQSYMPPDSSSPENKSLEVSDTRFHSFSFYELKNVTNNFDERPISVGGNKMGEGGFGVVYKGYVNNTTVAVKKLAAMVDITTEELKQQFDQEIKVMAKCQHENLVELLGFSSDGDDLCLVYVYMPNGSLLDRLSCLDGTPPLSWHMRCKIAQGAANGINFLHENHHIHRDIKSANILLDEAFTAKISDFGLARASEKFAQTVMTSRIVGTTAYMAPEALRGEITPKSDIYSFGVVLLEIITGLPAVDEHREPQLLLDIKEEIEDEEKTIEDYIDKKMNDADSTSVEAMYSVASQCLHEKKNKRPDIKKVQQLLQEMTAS

[3] = biological target: T1, Interleukin-1 receptor-associated kinase 4; experiment: Inhibition of IRAK4 in human THP1-Xblue-MD2-CD14 cells assessed as reduction in LPS-induced NFkappaB transcription by measuring alkaline phosphatase level preincubated for 1 hr followed by LPS stimulation and measured after 20 hrs by quanti-blue reagent based reporter assay
[4] = biological target: T1, Interleukin-1 receptor-associated kinase 4; experiment: Inhibition of recombinant IRAK4 (unknown origin) using KKARFSRFAGSSPSQSSMVAR as substrate in presence of [gamma33P]-ATP by liquid scintillation counting method
[5] = Kinetic aqueous solubility of the compound in PBS buffer at pH 7.4 incubated for 24 hrs under shaking condition by LC-CLND assay; assay type: physicochemical; details: PBS buffer, pH 7.4; read-out: Kinetic_solubility
[6] = organism: Homo sapiens; experiment: Selectivity ratio, ratio of Ki for human recombinant full length N-terminal His6-tagged IRAK1 (Argl94 to Ser712 residues) expressed in insect cells to Ki for human recombinant full length His6-tagged IRAK4 expressed in baculovirus expression system
[7] = Cytotoxicity against human THP1-Xblue-MD2-CD14 cells assessed as reduction in cell viability up to 20 uM preincubated for 1 hr followed by LPS stimulation and measured after 20 hrs; assay type: cell-based
[8] = Lipophilicity, log D of the compound; assay type: physicochemical; details: octanol/water
[9] = Apparent permeability from apical to basolateral side in MDCK cells at 10 uM incubated for 180 mins and measured up to 180 min by LC-MS/MS analysis; assay type: ADME, cell-based, Canis lupus familiaris; details: dog
[10] = biological target: T2, Interleukin-1 receptor-associated kinase 4 (Homo sapiens) (UniProt Q9NWZ3); experiment: Inhibition of human recombinant full length His6-tagged IRAK4 expressed in baculovirus expression system at 1 uM relative to control
T2 sequence (whole entry): T1 sequence (Q9NWZ3 whole entry)

[11] = Cmax in mouse at 5 mg/kg, po; assay type: ADME, organism-based; design: dose 5 mg/kg, route oral; details: in vivo, BLD = below limit of detection
[12] = Protein binding in mouse plasma at 5 uM incubated for 4 hrs by LC-MS/MS analysis; assay type: ADME, cell-free; details: read-out: PPB (converted)
[13] = Blood clearance in mouse at 1 mg/kg, iv; assay type: ADME, organism-based; details: whole blood
[14] = Oral bioavailability in mouse at 5 mg/kg; assay type: ADME, organism-based; details: in vivo, BLD = below limit of detection
[15] = Volume of distribution at steady state in mouse at 1 mg/kg, iv; assay type: ADME, organism-based; details: in vivo, read-out: Vdss
[16] = Protein binding in human plasma at 5 uM incubated for 4 hrs by LC-MS/MS analysis; assay type: ADME, cell-free; details: read-out: PPB (converted)
[17] = AUC (infinity) in mouse at 5 mg/kg, po; assay type: ADME, organism-based; design: dose 5 mg/kg, route oral, time infinity; details: in vivo, BLD = below limit of detection

| Compound | Ki [1] [nM] | Ki [2] [nM] | IC50 [3] [nM] | solubility kinetic at 24 h [5] [µM] | Papp A→B at 3 h, 10 µM [9] [×10⁻⁶ cm/s] | other results |
| --- | --- | --- | --- | --- | --- | --- |
| CN(C)c1ccc2cc(NC(=O)c3cnn4cccnc34)c(N3CCCCC3)cc2n1 | 500 | 26 | 98 | – | – | – |
| COc1cc2cccnc2cc1NC(=O)c1cnn2cccnc12 | – | – | – | – | – | Ki [4]: > 30000 nM |
| CC1(C)Cc2cc(NC(=O)c3cnn4cccnc34)c(N3CCCC3)cc2O1 | – | – | 140 | 7.1 (≈ 2.68 µg/mL) | – | – |
| CC1(C)Cc2cc(NC(=O)c3cnn4cccnc34)c(N3CCCC(O)CC3)cc2O1 (stereo not drawn) | – | – | 130 | 25 (≈ 10.5 µg/mL) | – | – |
| COc1cc2ccccc2cc1NC(=O)c1cnn2cccnc12 | – | – | – | – | – | Ki [4]: 610 nM |
| CC1(C)Cc2cc(NC(=O)c3cnn4cccnc34)c(N3CCC(C(O)C(F)(F)F)CC3)cc2O1 (stereo not drawn) | – | – | 56 | 1 (≈ 0.489 µg/mL) | – | – |
| O=C(Nc1cc2cccnc2cc1N1CCC(CO)CC1)c1cnn2cccnc12 | 400 | 1.7 | 35 | 1 (≈ 0.402 µg/mL) | – | Ratio Ki [6]: > 200; Activity [7]: Non-Toxic; logD [8]: 3.1 |
| CC1(C)Cc2cc(NC(=O)c3cnn4cccnc34)c(N3CCC(C(N)=O)CC3)cc2O1 | – | – | 53 | 7.1 (≈ 3.08 µg/mL) | – | – |
| O=C(Nc1cc2ccc(N3CCOCC3)nc2cc1N1CCCCC1)c1cnn2cccnc12 | 4700 | 290 | 1300 | – | – | – |
| COc1cc2ncccc2cc1NC(=O)c1cnn2cccnc12 | 2800 | 52 | 370 | – | – | – |
| O=C(Nc1cc2oc(N3CCOCC3)nc2cc1N1CCC(CO)CC1)c1cnn2cccnc12 | 340 | 1.2 | 60 | – | – | – |
| CC(C)(O)[C@]1(C)Cc2cc(NC(=O)c3cnn4cccnc34)c(N3CCOCC3)cc2O1 | – | 7.3 | 170 | 150 (≈ 65.6 µg/mL) | 21 | – |
| C[C@@]1(CO)Cc2cc(NC(=O)c3cnn4cccnc34)c(N3CCOCC3)cc2O1 | – | – | – | 10 (≈ 4.09 µg/mL) | 27 | – |
| CC1(C)Cc2cc(NC(=O)c3cnn4cccnc34)c(N3CCNCC3)cc2O1 | – | – | 56 | 110 (≈ 43.2 µg/mL) | – | – |
| CC1(C)Cc2cc(NC(=O)c3cnn4cc(C(N)=O)cnc34)c(N3CCOCC3)cc2O1 | – | – | 56 | 1 (≈ 0.436 µg/mL) | 0.7 | – |
| CC1(C)Cc2cc(NC(=O)c3cnn4cc(O)cnc34)c(N3CCOCC3)cc2O1 | – | 3.2 | 330 | 3.1 (≈ 1.27 µg/mL) | 14 | – |
| CC1(C)Cc2cc(NC(=O)c3cnn4cccnc34)c(N3CCN(CCO)CC3)cc2O1 | – | – | 97 | 120 (≈ 52.4 µg/mL) | 8.2 | – |
| CC1(C)Cc2cc(NC(=O)c3cnn4cc(CO)cnc34)c(N3CCOCC3)cc2O1 | – | – | 66 | 15 (≈ 6.35 µg/mL) | 18 | – |
| CN(C)c1nc2cc(N3CCC(CO)CC3)c(NC(=O)c3cnn4cccnc34)cc2s1 | 95 | 0.5 | 53 | – | – | inhibition [10]: > 70% |

| Compound | Ki [1] [nM] | Ki [2] [nM] | IC50 [3] [nM] | solubility kinetic at 24 h [5] [µM] | Papp A→B at 3 h, 10 µM [9] [×10⁻⁶ cm/s] | other results |
| --- | --- | --- | --- | --- | --- | --- |
| CCn1c(N2CCOCC2)nc2cc(N3CCC(CO)CC3)c(NC(=O)c3cnn4cccnc34)cc21 | > 10000 | 95 | 910 | – | – | – |
| CC1(C)Cc2cc(NC(=O)c3cnn4cccnc34)c(N3CCC(CO)CC3)cc2O1 | – | – | 38 | 95 (≈ 40 µg/mL) | 16 | Ratio Ki [6]: 210 |
| O=C(Nc1cc2cnc(N3CCOCC3)nc2cc1N1CCCCC1)c1cnn2cccnc12 | 5400 | 170 | 3000 | – | – | – |
| O=C(Nc1cc2[nH]cnc2cc1N1CCC(CO)CC1)c1cnn2cccnc12 | > 5700 | 6.7 | 330 | – | – | – |
| CC1(C)Cc2cc(NC(=O)c3cnn4cccnc34)c(N3CCN(CC(N)=O)CC3)cc2O1 | – | 2.1 | 25 | 10 (≈ 4.5 µg/mL) | 2.6 | – |
| CC1(C)Cc2cc(NC(=O)c3cnn4cc(C5CC5)cnc34)c(N3CCOCC3)cc2O1 | – | – | > 20000 | 1 (≈ 0.434 µg/mL) | – | – |
| O=C(Nc1cc2sc(N3CCOCC3)nc2cc1N1CCC(CO)CC1)c1cnn2cccnc12 | 24 | 0.5 | 8 | – | 8.4 | Cmax [11]: Bld; fraction unbound at 4 h, 5 µM [12]: 0.01; clearance [13]: 18 mL/min/kg; F [14]: Bld; Vd [15]: 0.4 L/kg; fraction unbound at 4 h, 5 µM [16]: 0.02; AUC [17]: Bld |
| CC1(C)Cc2cc(NC(=O)c3cnn4cc(C(F)F)cnc34)c(N3CCOCC3)cc2O1 | – | 31 | 1200 | 2.5 (≈ 1.11 µg/mL) | – | – |
| CC1(C)Cc2cc(NC(=O)c3cnn4cc(C#N)cnc34)c(N3CCOCC3)cc2O1 | – | 6.1 | 84 | 1 (≈ 0.418 µg/mL) | 2.7 | – |
| COc1cc2cc[nH]c2cc1NC(=O)c1cnn2cccnc12 | – | – | – | – | – | Ki [4]: 790 nM |
| CC1(C)Cc2cc(NC(=O)c3cnn4cccnc34)c(N3CCOCC3)cc2O1 | – | 5.3 | 170 | 1 (≈ 0.393 µg/mL) | 14 | Ratio Ki [6]: 220 |
| O=C(Nc1cc2cccnc2cc1N1CCCCC1)c1cnn2cccnc12 | – | – | – | – | – | Ki [4]: 8 nM |
| CN1CCC2(CC1)Cc1cc(NC(=O)c3cnn4cccnc34)c(N3CCOCC3)cc1O2 | – | 7.4 | 230 | 130 (≈ 58.3 µg/mL) | 13 | – |
| CC1(C)Cc2cc(NC(=O)c3cnn4c(O)ccnc34)c(N3CCOCC3)cc2O1 | – | > 8400 | > 20000 | 77 (≈ 31.5 µg/mL) | – | – |
| NCC1CCN(c2cc3ncccc3cc2NC(=O)c2cnn3cccnc23)CC1 | 510 | 2 | 41 | 22 (≈ 8.83 µg/mL) | – | Ratio Ki [6]: > 200; Activity [7]: Non-Toxic; logD [8]: 0.79 |
| CC1(C)Cc2cc(NC(=O)c3cnn4cc(OC(F)F)cnc34)c(N3CCOCC3)cc2O1 | – | 34 | > 20000 | 1 (≈ 0.459 µg/mL) | 0.6 | – |
| O=C(Nc1cc2[nH]c(N3CCOCC3)nc2cc1N1CCC(CO)CC1)c1cnn2cccnc12 | > 5500 | 1.7 | 250 | – | – | – |
| CNC(=O)CN1CCN(c2cc3c(cc2NC(=O)c2cnn4cccnc24)CC(C)(C)O3)CC1 | – | 3.5 | 60 | 23 (≈ 10.7 µg/mL) | 13 | – |
